The assay has as its system Jurkat E6.1 cells (ATCC #TIB-152). Kind of assay: Post-thaw viability of cells frozen immediately after addition of cryopreservative (trypan blue exclusion). Conditions: 10 wt % DMSO, FIG. 1. The format is cell-based. The method, then:
A glycerol ester component in the form of PGS was added to cell culture media containing Jurkat E6.1 cells (ATCC #TIB-152) at three different concentrations: 250 μg/mL (about 0.025 wt %), 500 μg/mL (about 0.05 wt %), and 1000 μg/mL (about 0.1 wt %). […] Cell culture media containing Jurkat E6.1 cells (ATCC #TIB-152) with no PGS and cell culture media containing Jurkat E6.1 cells (ATCC #TIB-152) with 10% DMSO served as controls. Cells were then immediately frozen at a rate of −1° C./min to −80° C. Once frozen, the cryopreserved cells were transferred to liquid nitrogen vapor phase storage for 72 hours. Following storage in a liquid nitrogen vapor phase, the cells were thawed and their viability was assessed through a trypan blue exclusion assay using a ThermoFisher Countess II FL automated cell counter to determine the percentage of viable cells.

For the molecule `C[S+](C)[O-]` [DMSO, dimethyl sulfoxide], the “cryoprotection of viable cells post-thaw (positive control)” value is on record as “provided cryoprotection to essentially all of the viable cells”.

(Values after US20220386591A1, “CRYOPRESERVATION COMPOSITIONS AND METHODS INCLUDING GLYCEROL ESTER COMPONENTS” (THE SECANT GROUP LLC, priority 2021, published 2022).)
